Experimental data taken from US9168247B2, “Beta carboline derivatives useful in the treatment of proliferative disorders” (FACULTES UNIVERSITAIRES NOTRE DAME DE LA PAIX, priority 2010, dated 2015).
Read-outs that look alike come from different tables or passages of the source.

Legend:
[1] = tested on: U373 glioma cells; test: MTT test, overall cell growth, U373; type: cell-based, human; settings: 72 hours of incubation
Protocol: (§1) MTT tests were performed in order to rapidly, i.e., within 5 days, measure the effect of the present compounds on the overall cell growth. The test measured the number of metabolically active living cells that were able to transform the yellow product 3-(4,5-dimethylthiazol-2-yl)-2,5-diphenyl tetrazolium bromide (herein referred as MTT) into the blue product formazan dye by mitochondrial reduction. The amount of formazan obtained at the end of the experiment, measured by means of a spectrophotometer, is directly proportional to the number of living cells. Optical density determination thus enabled a quantitative measurement of the effect of the investigated compounds as compared to the control condition (untreated cells) and/or to other reference compounds.
(§2) Five human cancer cell lines set forth in Table 3 were used in the MTT tests. These cancer cell lines cover two histological cancer types including glioma (Hs683, T98G, U373), and oesophageal (OE21, OE33) cancers. The U373 cell line is apoptosis-resistant but autophagy-sensitive.
(§3) To perform the assay, cells were allowed to grow in 96-well micro-wells with a flat bottom with an amount of 100 μl of cell suspension per well with 5,000 to 8,000 cells/well depending on the cell type used. Each cell line was seeded in its appropriate culture medium.
(§4) The detailed experimental procedure was as follows: after a 24-hour period of incubation at 37° C., the culture medium was replaced by 100 μl of fresh medium in which the tested compound was previously dissolved, at the following molar concentrations: 1×10^−8 M, 5×10^−8 M, 1×10^−7 M, 5×10^−7 M, 1×10^−6 M, 5×10^−6 M, 1×10^−5 M, 5×10^−5 M and 1×10^−4 M. Each experiment was performed in sestuplicate (6 times).
(§5) After 72 hours of incubation at 37° C. with (experimental conditions) or without (control condition) the compound to be tested, the medium was replaced by 100 μl MTT dissolved in RPMI (1640 without phenol red) at a concentration of 0.5 or 1 mg/ml. The micro-wells were subsequently incubated during 3 hours and a half at 37° C. and centrifuged at 1300 rpm during 10 minutes. MTT was removed and formazan crystals formed were dissolved in […]. The micro-wells were shaken for 5 minutes and read on a spectrophotometer at wavelengths of 570 nm (maximal formazan absorbance).
(§6) For each experimental condition, the mean optical density was calculated, allowing the determination of the percentage of remaining living cells in comparison to the control.
(§7) The origin of all the cell lines we used, along with their biological characteristics, and the validation procedures of the MTT colorimetric assay as employed here are fully detailed in Van Quaquebeke et al., 2005, J Med Chem 48:849-856; Ingrassia et al., 2009, J Med Chem 52:1100-1114; Mathieu et al., 2009, J Cell Mol Med, Feb. 20, 2009.

[2] = tested on: T98G glioma cells; test: MTT test, overall cell growth, T98G; type: cell-based, human; settings: 72 hours of incubation
Protocol: as §1, §2, §3, §4, §5, §6, §7

[3] = tested on: Hs683 glioma cells; test: MTT test, overall cell growth, Hs683; type: cell-based, human
Protocol: as §1, §2, §3, §4, §5, §6, §7

[4] = tested on: OE21 oesophageal cancer cells; test: MTT test, overall cell growth, OE21; type: cell-based, human
Protocol: as §1, §2, §3, §4, §5, §6, §7

[5] = tested on: OE33 oesophageal cancer cells; test: MTT test, overall cell growth, OE33; type: cell-based, human
Protocol: as §1, §2, §3, §4, §5, §6, §7

[6] = tested on: human cancer cell lines (U373, T98G, Hs683, OE21, OE33); test: MTT test, mean over the cancer cell lines; type: cell-based
Protocol: as §1, §2, §3, §4, §5, §6, §7

[7] = tested on: U373 cells; test: Cellular imaging (videomicroscopy) of cultured U373 cells: antiproliferative class and global growth ratio; type: cell-based, human; design: key to Anti proliferative class / anti-proliferative class-GGR: class I: actually cytostatic for 3 days (<10% of cell death at the 3rd day); class II: cyctostatic but becomes cytotoxic with <10% cell death on the 2nd day, and >20% of cell death on the 3rd day; class III: cytostatic but rapidly becomes cytotoxic with <10% cell death on the 1st day, >20% of cell death on the 2nd day and >50% of cell death on the 3rd day; class IV: cytotoxic (>50% of cell death on the first day); settings: for global growth ratio (GGR): GG treated cells/GG control cells, 72 h after drug addition, drug at its IC50 (MTT-test determined); for Anti proliferative class: cellular imaging of cultured U373 cells over three consecutive days
Text: The effects of the di- and tri-substituted beta-carboline derivatives as described herein can also be determined on cell proliferation, migration and morphology by means of a cellular imaging approach (Debeir et al., Cytometry 60:29-40, 2004; Debeir et al., IEEE Trans Med Imaging 24:697-711, 2005) either in, e.g., the human U373-MG glioma cell line, which is apoptosis-resistant but autophagy-sensitive (Lefranc F et al., Neurosurgery 2008) or in, e.g., the human A549 non-small-cell-lung cancer cell line, which is apoptosis-resistant and autophagy-resistant (Mijatovic T et al., Neoplasia 2006, May; 8(5):402-12).
[…] The experiments are conducted in quadruplicates.
The behaviour of the cells, in terms of morphology, growth and death are thus investigated. The effect on the overall growth is measured by counting the number of cells on the first (0 h) and the last image (72 h) of each film. The global growth ratio (GGR) is then deduced by dividing the number of cells on the last image by the number of cells on the first image. The ratio GGRtreated cells/GGRcontrol cells is further calculated thereby providing a value that describes the effect of compounds of the present invention on the overall cell growth.
The methodology is fully described and validated in Debeir et al., 2008, Exp Cell Res 314:2985-2998 and Mathieu et al., 2009, J Cell Mol Med, Feb. 20, 2009.

[8] = Homo sapiens, Hs 683, 72 hours of incubation
[9] = Homo sapiens, OE21, 72 hours of incubation
[10] = Homo sapiens, OE33, 72 hours of incubation
[11] = Homo sapiens, mean over the cancer cell lines, MTT test, read-out: IC50 Mean ± SEM
[12] = Homo sapiens, Glioma cell, MTT assay, submicromolar range, e.g. as low as, read-out: mean anti-proliferative effect on the glioma cell lines
[13] = Homo sapiens, Table 4, mean over cell lines, read-out: IC50 μM growth inhibition (MTT test)
[14] = mean over the cancer cell lines, MTT test, read-out: IC50 Mean ± SEM

Row | SMILES | IC50 ([1]; Homo sapiens, U373 MG) [nM] | IC50 ([2]; Homo sapiens, T98G) [nM] | IC50 [3, 8] [nM] | IC50 [4, 9] [nM] | IC50 [5, 10] [nM] | IC50 [6, 11] [µM] | global growth ratio (GGR) [7] | Anti proliferative class [7] | IC50 [6, 12] [µM] | IC50 [6, 13] [µM] | IC50 [1] [nM] | IC50 [2] [nM] | IC50 ([3]; 72 hours of incubation) [nM] | IC50 ([4]; 72 hours of incubation) [nM] | IC50 ([5]; 72 hours of incubation) [nM] | IC50 [6, 14] [µM]
1 | Cc1nccc2c3ccc(OCc4cccc(F)c4)cc3n(Cc3cccc(F)c3)c12 [CV5, 1-methyl-7-(3-fluorobenzyloxy)-9-(3-fluorobenzyl)-β-carboline] | 400 ± 60 | 27000 ± 1000 | 17500 ± 900 | 7900 ± 200 | 16000 ± 2000 | 14 ± 5 | 0.9 | I (class I: actually cytostatic for 3 days (<10% of cell death at the 3rd day)) | – | – | – | – | – | – | – | –
2 | Cc1c2c(cc[n+]1Cc1ccccc1)c1ccc(OCc3ccc(F)cc3)cc1n2Cc1ccc(F)cc1.[Br-] [CV23, 1-methyl-2-benzyl-7-(4-fluorobenzyl)oxy-9-(4-fluorobenzyl)-β-carbolin-2-ium bromide] | 430 ± 70 | 400 ± 40 | 900 ± 100 | 500 ± 90 | 1400 ± 100 | 0.8 ± 0.2 | 0.3 | I (class I: actually cytostatic for 3 days (<10% of cell death at the 3rd day)) | 0.34 to 0.8 | – | – | – | – | – | – | –
3 | Cc1nccc2c3ccc(OCC4CCCCC4)cc3n(CC3CCCCC3)c12 [CV12, 1-methyl-7-cyclohexylmethyloxy-9-cyclohexylmethyl-β-carboline] | 30700 ± 800 | 32000 ± 1000 | 30000 ± 2000 | 17000 ± 2000 | 15000 ± 3000 | 25 ± 4 | 0.2 | II | – | 25 | – | – | – | – | – | –
4 | CCCn1c2cc(OCc3ccccc3)ccc2c2cc[n+](Cc3ccccc3)c(C)c21.[Br-] [CV34, 1-methyl-2-benzyl-7-benzyloxy-9-propyl-β-carbolin-2-ium bromide] | 410 ± 30 | 1700 ± 500 | 2600 ± 200 | 570 ± 80 | 300 ± 50 | 1.1 ± 0.4 | 0.3 | III | – | – | – | – | – | – | – | –
5 | Cc1c2c(cc[n+]1Cc1ccccc1)c1ccc(OCC3CCCCC3)cc1n2CC1CCCCC1.[Br-] [CV24, 1-methyl-2-benzyl-7-cyclohexylmethyloxy-9-cyclohexylmethyl-β-carbolin-2-ium bromide] | 370 ± 20 | 160 ± 30 | 380 ± 9 | 420 ± 8 | 370 ± 10 | 0.34 ± 0.05 | 0.3 | I (class I: actually cytostatic for 3 days (<10% of cell death at the 3rd day)) | 0.34 to 0.8 | 0.34 | – | – | – | – | – | –
6 | Cc1c2c(cc[n+]1Cc1ccccc1)c1ccc(OCc3cccc(F)c3)cc1n2Cc1cccc(F)c1.[Br-] [CV16, 1-methyl-2-benzyl-7-(3-fluorobenzyl)oxy-9-(3-fluorobenzyl)43-carbolin-2-ium bromide] | – | – | – | – | – | – | 0.4 | I (class I: actually cytostatic for 3 days (<10% of cell death at the 3rd day)) | – | – | 820 ± 80 | 970 ± 20 | 2800 ± 400 | 400 ± 100 | 2900 ± 100 | 1.6 ± 0.5
7 | Cc1c2c(cc[n+]1CCO)c1ccc(OCCC(C)C)cc1n2CCC(C)C [PL11] | – | – | – | – | – | – | – | – | – | – | 2500 ± 300 | 2900 ± 400 | 4000 ± 300 | 7600 ± 300 | – | 4 ± 1
8 | Cc1c2c(cc[n+]1CC(=O)c1ccccc1)c1ccc(OCc3ccccc3)cc1n2Cc1ccccc1 [CV52] | – | – | – | – | – | – | – | – | – | – | 22000 ± 2000 | 19000 ± 2000 | 26000 ± 3000 | 17000 ± 2000 | – | 21 ± 2
9 | Cc1c2c(cc[n+]1CCc1ccccc1)c1ccc(OCc3ccccc3)cc1n2Cc1ccccc1 [PL4, 1-methyl-2-phenethyl-7-benzyloxy-9-benzyl-β-carbolin-2-ium bromide] | 2000 ± 300 | 2400 ± 400 | 2310 ± 90 | 2400 ± 300 | – | 2.3 ± 0.1 | – | – | – | – | – | – | – | – | – | –
10 | COc1ccc2c(c1)[nH]c1c(C)nccc12 [harmine, reference compound] | 32000 ± 2000 | 24000 ± 2000 | – | 32000 ± 2000 | 18000 ± 1000 | 28 ± 3 | – | I (class I: actually cytostatic for 3 days (<10% of cell death at the 3rd day)) | – | – | – | – | – | – | – | –
11 | Cc1c2c(cc[n+]1CCC(C)C)c1ccc(OCc3ccccc3)cc1n2Cc1ccccc1 [PL2, 1-methyl-2-(3-methylbutyl)-7-benzyloxy-9-benzyl-β-carbolin-2-ium bromide] | 390 ± 10 | 1200 ± 200 | 370 ± 30 | 500 ± 90 | – | 0.6 ± 0.2 | – | – | – | – | – | – | – | – | – | –
12 | Cc1c2c(cc[n+]1Cc1ccccc1F)c1ccc(OCc3ccc(F)cc3)cc1n2Cc1ccc(F)cc1.[Br-] [CV25, 1-methyl-2-(2-fluorobenzyl-7-(4-fluorobenzyl)oxy-9-(4-fluorobenzyl)-β-carbolin-2-ium bromide] | – | – | – | – | – | – | – | – | – | – | 460 ± 80 | 430 ± 20 | 1200 ± 400 | 1600 ± 300 | 1600 ± 200 | 1.1 ± 0.3
13 | Cc1c2c(cc[n+]1Cc1ccccc1F)c1ccc(OCc3ccc(F)cc3)cc1n2Cc1ccc(F)cc1.[Br-] [CV25] | – | – | – | – | – | – | 0.4 | I (class I: actually cytostatic for 3 days (<10% of cell death at the 3rd day)) | – | – | – | – | – | – | – | –
14 | CCC[n+]1ccc2c3ccc(OCc4ccccc4)cc3n(Cc3ccccc3)c2c1C [CV56, 1-methyl-2-propyl-7-benzyloxy-9-benzyl-β-carbolin-2-ium bromide] | 2500 ± 300 | 11000 ± 1000 | 600 ± 100 | 3400 ± 800 | – | 5 ± 2 | – | – | – | – | – | – | – | – | – | –
15 | Cc1c2c(cc[n+]1CCO)c1ccc(OCc3ccccc3)cc1n2Cc1ccccc1 [PL1] | – | – | – | – | – | – | – | – | – | – | 9000 ± 2000 | 61000 ± 6000 | 31000 ± 3000 | 25000 ± 4000 | – | 32 ± 11
16 | Cc1c2c(cc[n+]1CCC(C)C)c1ccc(OCCC(C)C)cc1n2CCC(C)C [PL12] | – | – | – | – | – | – | – | – | – | – | 220 ± 30 | 410 ± 10 | 260 ± 10 | 480 ± 40 | – | 0.34 ± 0.06
17 | Cc1c2c(cc[n+]1Cc1ccccc1)c1ccc(OCCC(C)C)cc1n2CCC(C)C [PL13] | – | – | – | – | – | – | – | – | – | – | 3400 ± 100 | 3500 ± 100 | 3100 ± 100 | 3700 ± 100 | – | 3.4 ± 0.1
18 | CCCCCC[n+]1ccc2c3ccc(OCc4ccccc4)cc3n(Cc3ccccc3)c2c1C [CV53, 1-methyl-2-hexyl-7-benzyloxy-9-benzyl-β-carbolin-2-ium bromide] | 660 ± 90 | 3100 ± 500 | 600 ± 100 | 1900 ± 300 | – | 1.5 ± 0.6 | – | – | – | – | – | – | – | – | – | –
